Reference: publication PMC4192597, “Antimicrobials, Stress and Mutagenesis” (PLoS Pathogens, 2014)
Values after ≈ are worked out from the molar mass of the structure shown. Like-named read-outs stand apart in the source and are kept apart here. Ends that are not written are not given here.

Tests used:
E. coli MG1655 [1] = assay: Minimal inhibitory concentration (MIC), micro-dilution; type: cell-based, Escherichia coli; conditions: inoculum 2×10^8 cfu/ml, 24 h, liquid MH medium, 37°C
Method: E. coli K-12 MG1655 was used for all experiments, grown in liquid Mueller-Hilton (MH) agar or agarose, unless otherwise indicated. All experiments were carried out at 37°C.
MICs were determined according to CLSI recommendations by a micro-dilution method with the exception that the inoculum size that was adjusted to 2×10^8 cfu/ml from a regrowth of overnight cultures to be consistent with the mutagenesis experiments. […] Polypropylene non-binding plates (Th. Geyer, Germany) were used for all experiments.

E. coli MG1655 [2] = assay: microbe, parasite or virus in culture; type: cell-based, Escherichia coli; conditions: 4 hours, 50% reduction of CFUs vs control, Mueller Hinton Broth, 37°C, five replicates, repeated twice
Method: The MIC50s for all antimicrobials were determined by inoculating strains grown to mid-log phase into the wells of a 96-microwell plate. Approximately 10^2 cells from overnight cultures were inoculated into tubes containing 10 ml of Mueller Hinton Broth medium, and the tubes were incubated at 37°C with strong shaking until the mid-log phase of growth (approximately 10^8 cells/ml). […] The plates were incubated at 37°C for 4 h with continuous shaking in a plate reader (Synergy 2, BioTeK). After four hours, aliquots from wells with OD^600 readings ranging from 10 to 90% values in comparison with the control, were serially diluted in sterile 0.9% NaCl, and incubated during 1 hour to allow the resolution of filaments as consequence of SOS activation, if any. Bacterial suspensions were plated in Mueller Hinton Broth agar plates to estimate the viability as colony forming units (CFUs). Five replicates per concentration were prepared and the experiments were repeated twice.

[3] = test system: E. coli stress response genes (strain MG1655); assay: Relative gene expression of stress response genes by quantitative real-time PCR; type: cell-based, Escherichia coli; conditions: for Expression, cpxA (Envelope stress) / Expression, cpxR (Envelope stress) / Expression, dinB (SOS response) / Expression, lexA (SOS response) / Expression, marR (Independent multiple antibiotic resistance) / Expression, oxyR (Oxidative stress) / Expression, phoP (Envelope stress) / Expression, phoQ (Envelope stress) / Expression, recA (SOS response) / Expression, rpoE (Envelope stress) / Expression, rpoS (Sigma S response) / Expression, umuC (SOS response): normalized to arcA, mdoG, tus, Pexiganan 16, Melittin 16, Kanamycin 16, Ciprofloxacin 0.5, Lysozyme 128, Ampicillin 32 μg/ml, three biological replicates; as to Result, cpxR: key: NDE: non-differentially expressed, p-value ≥ 0,05; UP: upregulated, p-value ≤ 0,05; DOWN: downregulated, p-value ≤ 0,05; as to Result, oxyR: key: NDE: non-differentially expressed, p-value ≥ 0,05; UP: upregulated, p-value ≤ 0,05; DOWN: downregulated, p-value ≤ 0,05; as to Result, rpoE: key: NDE: non-differentially expressed, p-value ≥ 0,05; UP: upregulated, p-value ≤ 0,05; DOWN: downregulated, p-value ≤ 0,05
Method: Preparation of each of the six treatments and the control samples was carried out by two operators on three consecutive days, thereby comprising three biological replicates for each of the six experimental and one control groups. To obtain the starting material for the experiment, a fresh bacterial culture was grown from a glycerol stock on Mueller-Hinton (MH) agar plates at 37°C for 18–24 hours. One well-isolated colony per biological replicate was used to inoculate 2 ml of liquid MH (Sigma) in a 10 ml sterile polypropylene tube and incubated at 37°C for 16 hours with mild shaking. The overnight (ON) culture was then diluted 1∶100 in MH, subdivided into seven 10 ml aliquots and incubated in 50 ml-Falcon tubes at 37°C for 2.5 hours at 220 rpm. When the OD600 of bacterial cultures reached 0.5–0.7, respective antibiotics and AMPs were added to a concentration to match with those used in the mutagenesis experiments. These bacterial cultures were incubated for 20 minutes at 37°C with gentle shaking. Two ml of bacterial cultures from each treatment and the control were collected, immediately centrifuged at 10000 g for 2 minutes and the supernatant was removed to stop the treatment. The bacterial pellet was then resuspended in 1 ml MH, followed by an addition of 1 ml of RNAprotect Bacteria Reagent (Qiagen), 5 minutes incubation and centrifugation at 10000 g for 2 minutes at room temperature. The supernatant was discarded and the bacterial pellet was immediately frozen and stored at −80°C until RNA extraction.
Total RNA was isolated using RNeasy kit (Qiagen) according to the manufacturer's instructions and eluted in 50 µl of RNase-free water. The nucleic acid yield and purity were determined by measuring the optical density at A260/280 using a Nanodrop spectrophotometer (Thermo Scientific). RNA samples were treated with TURBO DNase (Life Technologies). Briefly, ten µg of RNA were used in a total volume of 500 µl containing 20 units of TURBO DNase, incubated for 30 minutes at 37°C, immediately followed by RNeasy (Qiagen) cleanup and elution in 30 µl of RNase-free water. Following DNase treatment, RNA integrity was assessed using Agilent RNA 6000 Nano kit and 2100 Bioanalyzer instrument (both Agilent Technologies).
High-Capacity cDNA Reverse Transcription Kit with RNase Inhibitor (Applied Biosystems) was used for cDNA synthesis. Initially, to ensure linear conversion of the transcripts, the dynamic range of reverse transcription reaction was tested by performing a standard curve with cDNA, synthesised using various input amounts of pooled RNA. Total RNA (250 ng per reaction) and random primers were used for cDNA synthesis. To obtain sufficient amount of cDNA, several batches of 20 µl RT reactions were pooled, diluted 50-fold with RNase-free water and stored in single-use aliquots at −80°C until further use. All 21 samples were tested for presence of contaminating genomic DNA by running the mdoG assay with cDNA and the respective no reverse transcription (−RT) controls.
Escherichia coli strain K-12 substrain MG1655 complete genome (accession U00096) sequence was downloaded from NCBI database (www.ncbi.nlm.nih.gov) and used for primer design. Target sequence accession number, location of the amplicon, amplicon length and primer sequences for each assay can be found in table S2. Primers were designed using Primer Express software (Applied Biosystems) and optimized for annealing temperature of 60°C. Each primer pair and amplicon were checked for secondary structure formation using Oligo Tool (Integrated DNA technologies, http://eu.idtdna.com/analyzer/Applications/OligoAnalyzer/).

[4] = test system: E. coli stress response genes; conditions: cited from earlier work
E. coli MG1655 [5] = assay: Luria-Delbrück fluctuation assay, mutation rate (rifampicin resistance); type: cell-based, Escherichia coli; conditions: concentrations ranging from 0.5 to 4 µg/ml (Figure S1)
Method: We first investigated the mutation rates of E. coli using a Luria-Delbrück fluctuation test. We used the Escherichia coli strain MG1655 and the concentration of all antimicrobials was adjusted to limit bacterial growth to 50% in four hours of treatment.
The duration of treatment was set to 4 hours for all antimicrobials, and the concentrations were adjusted to obtain around 50% of inhibition of grow in comparison to the a non-treated control. Three ml of exponentially growing culture of E. coli MG1655 (∼2×10^8 cells/ml) were centrifuged at 4000 g for 10 minutes and re-suspended in the same volume of MH with different concentrations of antimicrobials at 37°C with shaking (200 rpm). After incubation, the cultures were centrifuged for 10 min at 4000 g. The pellet was re-suspended, washed twice with MH and re-suspended in 3 ml of fresh medium and incubated overnight (16 h) at 37°C with shaking. This step is necessary to resolve the filaments that some antimicrobials induce due to their toxic action and allow recovery of cells under stress. Cultures were diluted and plated to determine the number of colony forming units in MH agar plates. The number of mutants was estimated by the number of colonies growing on rifampicin (100 µg/ml). […]
We also assessed if different AMP concentrations (Fig. S1) or different inoculum sizes (10^2, 10^4, 10^6, 10^8 cfu/ml) influenced mutation rates (Fig. S2).

[6] = qPCR, 20 minutes exposure vs non-treated bacteria, REST 2009 randomisation test
[7] = qPCR, 20 minutes exposure vs non-treated bacteria
[8] = ampicillin 5 μg/ml, 120 min, ref Kohanski,2007

Molecule | Result, cpxA [3, 6] | Result, cpxR [3, 6] | Result, dinB [3, 6] | Result, lexA [3, 6] | Result, marR [3, 6] | Result, oxyR [3, 6] | Result, phoP [3, 6] | Result, phoQ [3, 6] | Expression, cpxA (Envelope stress) [3, 7] | Expression, cpxR (Envelope stress) [3, 7] | Expression, dinB (SOS response) [3, 7] | Expression, lexA (SOS response) [3, 7] | Expression, marR (Independent multiple antibiotic resistance) [3, 7] | Expression, oxyR (Oxidative stress) [3, 7] | Expression, phoP (Envelope stress) [3, 7] | Expression, phoQ (Envelope stress) [3, 7] | Expression, recA (SOS response) [3, 7] | Expression, rpoE (Envelope stress) [3, 7] | Expression, rpoS (Sigma S response) [3, 7] | Expression, umuC (SOS response) [3, 7] | further results
CC1(C)S[C@@H]2[C@H](NC(=O)[C@H](N)c3ccccc3)C(=O)N2[C@H]1C(=O)O [Ampicillin] | NDE | NDE | NDE | NDE | UP (2.5-fold) | NDE | NDE | NDE | 1.083 | 0.988 | 1.623 | 1.563 | 2.498 | 0.923 | 1.026 | 0.96 | 1.627 | 0.815 | 1.31 | 1.373 | MIC (E. coli MG1655 [1]; Escherichia coli, read-out: MIC): 4 µg/mL (≈ 11.4 µM); MIC50 (E. coli MG1655 [2]; Escherichia coli, read-out: MIC50): 3.2 µg/mL; expression, lexA (microarray database) [4, 8]: 2.143; expression, marR (microarray database) [4, 8]: 4.064; expression, phoP (microarray database) [4, 8]: -2.302; expression, rpoS (microarray database) [4, 8]: -2.26; expression, rpoE (microarray database) ([4]; ampicillin 25 μg/ml, 30 min, ref Shaw,2003): -4.545
CC[C@H](C)[C@H](NC(=O)CN)C(=O)NCC(=O)N[C@@H](C)C(=O)N[C@H](C(=O)N[C@@H](CC(C)C)C(=O)N[C@@H](CCCCN)C(=O)N[C@H](C(=O)N[C@@H](CC(C)C)C(=O)N[C@H](C(=O)N[C@H](C(=O)NCC(=O)N[C@@H](CC(C)C)C(=O)N1CCC[C@H]1C(=O)N[C@@H](C)C(=O)N[C@@H](CC(C)C)C(=O)N[C@H](C(=O)N[C@@H](CO)C(=O)N[C@@H](Cc1c[nH]c2ccccc12)C(=O)N[C@H](C(=O)N[C@@H](CCCCN)C(=O)N[C@@H](CCCNC(=N)N)C(=O)N[C@@H](CCCCN)C(=O)N[C@@H](CCCNC(=N)N)C(=O)N[C@@H](CCC(N)=O)C(=O)N[C@@H](CCC(N)=O)C(N)=O)[C@@H](C)CC)[C@@H](C)CC)[C@@H](C)O)[C@@H](C)O)C(C)C)C(C)C [Melittin] | NDE | NDE | NDE | NDE | NDE | NDE | NDE | NDE | 1.295 | 0.953 | 0.991 | 1.1 | 0.743 | 1.337 | 0.857 | 0.87 | 1.12 | 1.197 | 0.972 | 0.926 | MIC50 (E. coli MG1655 [2]): 1.6 µg/mL; mutation rates over a gradient of sub-inhibitory to inhibitory concentrations (E. coli MG1655 [5]): did not change; Result, recA [3, 6]: NDE; Result, rpoE [3, 6]: NDE; Result, rpoS [3, 6]: NDE; Result, umuC [3, 6]: NDE
GIGKFLKKAKKFGKAFVKILKK-NH2 (C-terminus assumed) [Pexiganan] | – | – | – | – | – | – | – | – | 0.893 | 0.846 | 1.114 | 1.049 | 4.048 | 1.187 | 3.074 | 2.447 | 0.733 | 1.108 | 1.353 | 0.925 | MIC (E. coli MG1655 [1]): 2 µg/mL; mutation rates over a gradient of sub-inhibitory to inhibitory concentrations (E. coli MG1655 [5]): did not change; Result, cpxA [3]: NDE; Result, cpxR [3]: NDE; Result, dinB [3]: NDE; Result, lexA [3]: NDE; Result, marR [3]: UP (4.05-fold); Result, oxyR [3]: NDE; Result, phoP [3]: UP (3.07-fold); Result, phoQ [3]: UP (2.45-fold); Result, recA [3]: NDE; Result, rpoE [3]: NDE; Result, rpoS [3]: NDE; Result, umuC [3]: NDE; overexpression of three envelope stress genes (marR, phoP and phoQ) ([3]; qPCR, 20 minutes exposure): overexpression
